The results in this text go back to ChEMBL document CHEMBL2069304, “Indole alkaloids from two cultured cyanobacteria, Westiellopsis sp. and Fischerella muscicola” (Bioorg Med Chem, 2012).

In general, IC50 refers to the midpoint of a concentration-inhibition curve.

Converted amounts (≈) assume the structure as drawn. The source made the active and inactive calls. The rule behind the calls is not given here.

One assay deals with Candida albicans. The assay can be described thus: Antimicrobial activity against Candida albicans by broth microdilution assay. In kind it is functional.
The test system of another assay is Acinetobacter baumannii. In words: Antimicrobial activity against Acinetobacter baumannii by broth microdilution assay. In kind it is functional. Background: Broth dilution looks for growth in wells or tubes with falling amounts of substance.
In another assay the test system is Escherichia coli. The assay can be described thus: Antimicrobial activity against Escherichia coli by broth microdilution assay. In kind it is functional.
Assay [1] deals with Mycolicibacterium smegmatis. The assay can be described thus: Antimicrobial activity against Mycobacterium smegmatis by broth microdilution assay. In kind it is functional.
The next assay concerns SF-268. The assay can be described thus: Cytotoxicity against human SF268 cells incubated for 3 days by SRB assay. In kind it is functional, cell-based. The note with it: SF-268, 72 h. (In SRB staining, fixed cells bind dye roughly in proportion to their protein.)
In the next assay the test system is Staphylococcus aureus. In words: Antimicrobial activity against Staphylococcus aureus by broth microdilution assay. In kind it is functional.
In assay [2] the test system is Mycobacterium tuberculosis. In words: microbe, parasite or virus in culture. The note with it: H37Rv.
Description: Antimicrobial activity against Mycobacterium tuberculosis H37Rv by microplate Alamar blue assay
The test system of another assay is IMR-90. The assay can be described thus: Cytotoxicity against human IMR90 cells incubated for 3 days by SRB assay. In kind it is cell-based. The note with it: IMR-90, 72 h.
The subject of the next assay is MCF7. In words: Cytotoxicity against human MCF7 cells incubated for 3 days by SRB assay. In kind it is functional, cell-based. The settings on record: MCF7, 72 h.
Another assay deals with NCI-H460. The assay can be described thus: Cytotoxicity against human NCI-H460 cells incubated for 3 days by SRB assay. In kind it is functional, cell-based. The note with it: NCI-H460, 72 h.
The next assay concerns HT-29. The assay can be described thus: Cytotoxicity against human HT-29 cells by CellTiter 96 Aqueous One solution cell proliferation assay. In kind it is functional, cell-based.
The species named for the next assay is Homo sapiens. The assay can be described thus: Inhibition of 20S proteasome at 25 ug/ml.
The subject of a further assay is Vero. The assay can be described thus: Cytotoxicity against african green monkey Vero cells by CellTiter 96 aqueous nonradioactive cell proliferation assay. In kind it is cell-based. The settings on record: Chlorocebus sabaeus.
The mark [3] stands for this setting: Homo sapiens, HT-29, read-out: IC50.

As for `C[C@@H]1[C@H](O)[C@@H](C)/C=C/C=C/C=C/C=C/C=C/C=C/C=C/[C@H](O[C@@H]2O[C@H](C)[C@@H](O)[C@H](N)[C@@H]2O)C[C@@H]2O[C@](O)(C[C@@H](O)C[C@@H](O)[C@H](O)CC[C@@H](O)C[C@@H](O)CC(=O)O[C@H]1C)C[C@H](O)[C@H]2C(=O)O` [AMPHOTERICIN B], the MIC with Candida albicans was determined as 0.12 µM (≈ 0.111 µg/mL).

`[C-]#[N+][C@@H]1[C@H]2c3c[nH]c4cccc(c34)C(C)(C)[C@H]2CC[C@]1(C)C=C` [HAPALINDOLE J]: the MIC with Acinetobacter baumannii is greater than 100 µM; against Escherichia coli it was greater than 100 µM; in [1], 39 µM (≈ 11.9 µg/mL); against Candida albicans, 0.7 µM (≈ 0.213 µg/mL); against Staphylococcus aureus, 8.4 µM (≈ 2.56 µg/mL); in assay [2], 4.3 µM (≈ 1.31 µg/mL). Also, the IC50 in the assay with SF-268 turned out to be 16.9 µM; in the assay on IMR-90, 39.1 µM; in the assay with MCF7, 43.7 µM; with NCI-H460, 12 µM; in the assay on HT-29 (setting [3]) it was 28.6 µM.

As for `CC1(C)S[C@@H]2[C@H](NC(=O)[C@H](N)c3ccccc3)C(=O)N2[C@H]1C(=O)O` [AMPICILLIN], in the assay with Staphylococcus aureus, the MIC was 1.54 µM (≈ 0.538 µg/mL).

`CO[C@H]1/C=C/O[C@@]2(C)Oc3c(C)c(O)c4c(O)c(c(/C=N/N5CCN(C)CC5)c(O)c4c3C2=O)NC(=O)/C(C)=C\C=C\[C@H](C)[C@H](O)[C@@H](C)[C@@H](O)[C@@H](C)[C@H](OC(C)=O)[C@@H]1C` [RIFAMPIN]: the MIC in assay [2] is 0.24 µM (≈ 0.198 µg/mL).

GENTAMICIN yielded an MIC with Escherichia coli of 2.3 µM.

For the compound `[C-]#[N+][C@@H]1[C@H](c2c[nH]c3ccccc23)[C@@H](C(=C)C)CC[C@]1(C)C=C` [HAPALINDOLE C], the inhibition result in the assay filed under Homo sapiens is “inactive”. Also, the IC50 is 88.6 µM with SF-268, greater than 100 µM in the assay with IMR-90, greater than 100 µM with MCF7 and 53.7 µM with NCI-H460.

`[C-]#[N+]C1=C2c3c[nH]c4cccc(c34)C(C)(C)[C@H]2C[C@@H](Cl)[C@]1(C)C=C` [HAPALINDOLE I]: the MIC in the assay on Acinetobacter baumannii was greater than 100 µM; against Escherichia coli, greater than 100 µM; in assay [1], greater than 100 µM; against Candida albicans, greater than 100 µM; with Staphylococcus aureus it was greater than 100 µM; in assay [2], 2 µM (≈ 0.674 µg/mL). The IC50 is 93.1 µM with SF-268; greater than 100 µM in the assay with Vero; greater than 100 µM in the assay with IMR-90; greater than 100 µM in the assay with MCF7; 68.5 µM in the assay with NCI-H460; “Not Active” with HT-29 (ht-29).

On to `[C-]#[N+][C@@H]1[C@H]2c3c[nH]c4cccc(c34)C(C)(C)[C@H]2C[C@@H](Cl)[C@]1(C)C=C` [HAPALINDOLE A], for which the MIC is greater than 100 µM against Acinetobacter baumannii; 8 µM (≈ 2.71 µg/mL) against Escherichia coli; 18.2 µM (≈ 6.17 µg/mL) in [1]; 1.2 µM (≈ 0.407 µg/mL) against Candida albicans; 3.9 µM (≈ 1.32 µg/mL) in the assay on Staphylococcus aureus; less than 0.6 µM in [2]. The IC50 stood at 16.3 µM with SF-268; 25.6 µM in the assay with Vero; 39.1 µM with IMR-90; 30.7 µM in the assay with MCF7; 17 µM in the assay with NCI-H460.

Regarding `CCCCCC#CC#C/C=C/CCCC[C@H]1C[C@@H](C)C(=O)N1` [FISCHERELLIN B], the MIC with Acinetobacter baumannii is greater than 100 µM; against Escherichia coli it was greater than 100 µM; in assay [1], greater than 100 µM; against Candida albicans, greater than 100 µM; in the assay with Staphylococcus aureus, greater than 100 µM; in [2] it was 23 µM (≈ 6.89 µg/mL). For the same compound, the IC50 with Vero is greater than 100 µM.

As for `[C-]#[N+]C1=C2c3c[nH]c4cccc(c34)C(C)(C)[C@H]2CC[C@]1(C)C=C` (relative stereo), the MIC (in the assay on Acinetobacter baumannii; in the assay with Escherichia coli; in assay [1]; against Candida albicans; in the assay on Staphylococcus aureus; in assay [2]) was greater than 100 µM each time. For the same compound, in the assay with Vero, the IC50 was greater than 100 µM.

Consider `CC[C@@]1(O)C(=O)OCc2c1cc1n(c2=O)Cc2cc3ccccc3nc2-1` [CAMPTOTHECIN], for which the IC50 in the assay with SF-268 was 0.07 µM; in the assay with IMR-90, 0.43 µM; with MCF7, 0.08 µM; with NCI-H460, 0.002 µM.

With `CN[C@@H]1[C@H](O[C@H]2[C@H](O[C@H]3[C@H](O)[C@@H](O)[C@H](N=C(N)N)[C@@H](O)[C@@H]3N=C(N)N)O[C@@H](C)[C@]2(O)C=O)O[C@@H](CO)[C@H](O)[C@H]1O` [STREPTOMYCIN], the MIC in [1] was 0.41 µM (≈ 0.238 µg/mL).

Take `C[C@H]1c2cccc(O)c2C(=O)C2=C(O)[C@]3(O)C(=O)C(C(N)=O)=C(O)[C@@H](N(C)C)[C@@H]3[C@@H](O)[C@@H]21` [DOXYCYCLINE]: in the assay with Acinetobacter baumannii, the MIC turned out to be 0.35 µM (≈ 0.156 µg/mL).

On to `[C-]#[N+][C@@H]1[C@H]2c3c([nH]c4ccccc34)C(C)(C)[C@H]2C[C@@H](Cl)[C@@]1(C)C=C` [FISCHERINDOLE L], for which the MIC in the assay with Acinetobacter baumannii is greater than 100 µM; in the assay on Escherichia coli, greater than 100 µM; in assay [1], 63 µM (≈ 21.3 µg/mL); against Candida albicans, 1.2 µM (≈ 0.407 µg/mL); against Staphylococcus aureus, 6.4 µM (≈ 2.17 µg/mL); in assay [2], 22 µM (≈ 7.46 µg/mL). For the same compound, the IC50 is 17.4 µM in the assay on SF-268; less than 9.2 µM in the assay on Vero; 46.3 µM with IMR-90; 28.3 µM with MCF7; 15.1 µM in the assay on NCI-H460.

`[C-]#[N+][C@@H]1C2=C3C(=O)Nc4cccc(c43)C(C)(C)[C@H]2C[C@@H](Cl)[C@]1(C)C=C` [ANHYDROHAPALOXINDOLE A]: the MIC is greater than 100 µM in the assay on Acinetobacter baumannii; greater than 100 µM with Escherichia coli; greater than 100 µM in assay [1]; 1.9 µM (≈ 0.67 µg/mL) against Candida albicans; 27.3 µM (≈ 9.63 µg/mL) with Staphylococcus aureus; 16.2 µM (≈ 5.72 µg/mL) in [2]. The IC50 with SF-268 came to 26 µM; in the assay with IMR-90, 80.1 µM; in the assay on MCF7, 56.7 µM; in the assay with NCI-H460 it was 18.7 µM.

`[C-]#[N+][C@@H]1[C@H]2c3c[nH]c4cccc(c34)C(C)(C)[C@@H]2CC[C@]1(C)C=C` [HAPALINDOLE H]: the IC50 in the assay on SF-268 was determined as 10.6 µM; with IMR-90 it was 31.9 µM; in the assay on MCF7 it was 16.3 µM; in the assay with NCI-H460, 8.5 µM.

For the compound `C=C[C@]1(C)CC2C(=O)c3c(NC=O)cccc3C(C)(C)[C@H]2C[C@H]1O` (relative stereo), the MIC (in the assay on Acinetobacter baumannii; with Escherichia coli; in [1]; in the assay with Candida albicans; against Staphylococcus aureus; in assay [2]) was greater than 100 µM in each case. The IC50 in the assay on SF-268 is greater than 100 µM; in the assay with Vero, greater than 100 µM; in the assay with IMR-90 it was greater than 100 µM; in the assay with MCF7, greater than 100 µM; in the assay on NCI-H460, greater than 100 µM; with HT-29 (ht-29) it was “Not Active”.

Regarding `[C-]#[N+][C@H]1C(=C)[C@@H](C=C)C[C@@H]2[C@@H]1c1c[nH]c3cccc(c13)C2(C)C` (relative stereo), the MIC with Acinetobacter baumannii was greater than 100 µM; against Escherichia coli, greater than 100 µM; in assay [1] it was 78.8 µM (≈ 23.8 µg/mL); against Candida albicans it was 2.5 µM (≈ 0.756 µg/mL); against Staphylococcus aureus, 9.1 µM (≈ 2.75 µg/mL); in assay [2], 2.5 µM (≈ 0.756 µg/mL). The IC50 in the assay on SF-268 amounted to 23.5 µM; with IMR-90, 113 µM; in the assay on MCF7 it was 35.4 µM; in the assay with NCI-H460, 23 µM; in the assay with HT-29 (setting [3]), 24.8 µM.

`[C-]#[N+][C@@H]1[C@@H]2c3c[nH]c4cccc(c34)C(C)(C)[C@H]2CC[C@]1(C)C=C` [HAPALINDOLE U]: the IC50 in the assay with SF-268 is greater than 100 µM; in the assay with IMR-90, greater than 100 µM; with MCF7 it was greater than 100 µM; in the assay with NCI-H460 it was greater than 100 µM; in the assay on HT-29 (setting [3]), 52.6 µM.
